Results reported in patent US20080194574A1, “Pyrazine Derivatives As Effective Compounds Against Infectious Diseases” (AXXIMA PHARMACEUTICALS AG, priority 2003, published 2008).

These molecules were tested against T1, viral kinase pUL-97 (Human cytomegalovirus, UniProt P16788) (assay: UL97 kinase assay on Immobilon plate). Settings: inhibition of UL 97 kinase activity; class by IC50 / % inhibition at 10 μM or 100 μM; read-out: Activity Class [A, B, C].
T1 construct: The pUL-97 gene was cloned into a baculovirus vector; GST (glutathione S-transferase) (N); made in house; host or cells: Sf9 insect cells, baculovirus
T1 sequence (P16788 whole entry): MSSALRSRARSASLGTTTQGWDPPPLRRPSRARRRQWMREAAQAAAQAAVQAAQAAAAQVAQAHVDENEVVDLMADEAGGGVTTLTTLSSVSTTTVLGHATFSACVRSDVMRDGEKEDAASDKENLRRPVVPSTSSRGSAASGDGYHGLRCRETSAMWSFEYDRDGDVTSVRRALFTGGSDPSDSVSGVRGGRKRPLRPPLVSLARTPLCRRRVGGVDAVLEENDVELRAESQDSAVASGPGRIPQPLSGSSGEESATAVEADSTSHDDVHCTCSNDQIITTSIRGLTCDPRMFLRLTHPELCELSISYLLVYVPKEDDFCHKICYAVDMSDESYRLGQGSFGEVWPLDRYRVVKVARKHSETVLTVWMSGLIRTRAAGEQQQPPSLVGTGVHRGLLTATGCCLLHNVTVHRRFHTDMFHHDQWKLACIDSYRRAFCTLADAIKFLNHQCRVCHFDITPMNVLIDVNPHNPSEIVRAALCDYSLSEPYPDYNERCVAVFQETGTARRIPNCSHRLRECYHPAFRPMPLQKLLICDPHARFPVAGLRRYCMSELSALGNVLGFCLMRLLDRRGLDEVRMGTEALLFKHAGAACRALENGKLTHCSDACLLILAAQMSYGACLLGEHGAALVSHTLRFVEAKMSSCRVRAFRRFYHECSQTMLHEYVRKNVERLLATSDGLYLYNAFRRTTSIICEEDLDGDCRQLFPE
Type: biochemical
Summary of the method: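 GST-pUL97 from baculovirus-infected Sf9 cells phosphorylated myelin basic protein with ATP (3 μM in the added assay buffer) and γ-[33P]ATP in Tris-HCl pH 7.5 buffer with MnCl2 and DTT. Reaction ran 1 h at 30 °C with graded compound concentrations and was stopped with EDTA. 33P incorporation was measured by scintillation after filter capture and phosphoric acid washes.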
For `Cc1ccc(-c2cncc(N3CCN(c4ccc(F)cc4)CC3)n2)cc1` [compound 233, 4-(4-Fluoro-phenyl)-6′-p-tolyl-3,4,5,6-tetrahydro-2H-[1,2′]bipyrazinyl], the IC50 was 1 to 10 µM.
`Cc1cccc(N2CCN(c3cncc(-c4cc5ccccc5s4)n3)CC2)c1C` [compound 295, 6′-Benzo[b]thiophen-2-yl-4-(2,3-dimethyl-phenyl)-3,4,5,6-tetrahydro-2H-[1,2′]bipyrazinyl] showed an IC50 of 10 to 100 µM.
`c1ccc(N2CCN(c3cncc(-c4cccc5ccccc45)n3)CC2)cc1` [compound 246, 6′-Naphthalen-1-yl-4-phenyl-3,4,5,6-tetrahydro-2H-[1,2′]bipyrazinyl] showed an IC50 of 10 to 100 µM.
With `c1ccc2c(-c3cncc(N4CCN(c5cnccn5)CC4)n3)csc2c1` [compound 332, 6-Benzo[b]thiophen-3-yl-2′,3′,5′,6′-tetrahydro-[2,1′;4′,2″]terpyrazine] the IC50 was under 1 µM.
Molecule `COc1ccc(N2CCN(c3cncc(-c4ccc(C#N)cc4)n3)CC2)cc1` [compound 293, 4-[4-(4-Methoxy-phenyl)-3,4,5,6-tetrahydro-2H-[1,2′]bipyrazinyl-6′-yl]-benzonitrile] has an IC50 of 1 to 10 µM.
`c1ccc2c(-c3cncc(N4CCN(c5ccncc5)CC4)n3)cccc2c1` [compound 221, 6′-Naphthalen-1-yl-4-pyridin-4-yl-3,4,5,6-tetrahydro-2H-[1,2′]bipyrazinyl] was tested, and the IC50 was 1 to 10 µM.
`CC(=O)c1ccc(N2CCN(c3cncc(-c4cccc(F)c4)n3)CC2)cc1` [compound 214, 1-{4-[6′-(3-Fluoro-phenyl)-2,3,5,6-tetrahydro-[1,2′]bipyrazinyl-4-yl]-phenyl}-ethanone] showed an IC50 of 10 to 100 µM.
`Fc1ccc(N2CCN(c3cncc(-c4cc5ccccc5s4)n3)CC2)c(F)c1` [compound 272, 6′-Benzo[b]thiophen-2-yl-4-(2,4-difluoro-phenyl)-3,4,5,6-tetrahydro-2H-[1,2′]bipyrazinyl] showed an IC50 of 1 to 10 µM.
`Clc1ccc(N2CCN(c3cncc(-c4ccoc4)n3)CC2)cc1` [compound 349, 4-(4-Chloro-phenyl)-6′-furan-3-yl-3,4,5,6-tetrahydro-2H-[1,2′]bipyrazinyl] showed an IC50 of 10 to 100 µM.
For `c1ccc(Oc2ccc(-c3cncc(N4CCN(c5ccccn5)CC4)n3)cc2)cc1` [compound 341, 6′-(4-Phenoxy-phenyl)-4-pyridin-2-yl-3,4,5,6-tetrahydro-2H-[1,2′]bipyrazinyl], the IC50 was 10 to 100 µM.
`CN(C)c1ccc(-c2cncc(N3CCN(c4ccc(Cl)cc4)CC3)n2)cc1` [compound 340, {4-[4-(4-Chloro-phenyl)-3,4,5,6-tetrahydro-2H-[1,2′]bipyrazinyl-6′-yl]-phenyl}-dimethyl-amine] gave an IC50 of 10 to 100 µM.
With `CSc1ccc(-c2cncc(N3CCN(c4ccc(F)cc4F)CC3)n2)cc1` [compound 274, 4-(2,4-Difluoro-phenyl)-6′-(4-methylsulfanyl-phenyl)-3,4,5,6-tetrahydro-2H-[1,2′]bipyrazinyl] the IC50 was 1 to 10 µM.
In the case of `CCOc1ccc(-c2cncc(N3CCN(c4ccc(F)cc4F)CC3)n2)cc1` [compound 203, 4-(2,4-Difluoro-phenyl)-6′-(4-ethoxy-phenyl)-3,4,5,6-tetrahydro-2H-[1,2′]bipyrazinyl], the IC50 is reported as 10 to 100 µM.
For `OCc1ccc(-c2cncc(N3CCN(c4ccccn4)CC3)n2)cc1` [compound 351, [4-(4-Pyridin-2-yl-3,4,5,6-tetrahydro-2H-[1,2′]bipyrazinyl-6′-yl)-phenyl]-methanol], the IC50 was 1 to 10 µM.
Molecule `Cc1ccc(N2CCN(c3cncc(-c4csc5ccccc45)n3)CC2)cc1` [compound 231, 6′-Benzo[b]thiophen-3-yl-4-p-tolyl-3,4,5,6-tetrahydro-2H-[1,2′]bipyrazinyl] has an IC50 of 10 to 100 µM.
`COc1cccc(N2CCN(c3cncc(-c4ccc(C(F)(F)F)cc4)n3)CC2)c1` [compound 356, 4-(3-Methoxy-phenyl)-6′-(4-trifluoromethyl-phenyl)-3,4,5,6-tetrahydro-2H-[1,2′]bipyrazinyl] gave an IC50 of 1 to 10 µM.
`Clc1cccc(N2CCN(c3cncc(-c4csc5ccccc45)n3)CC2)c1` [compound 239, 6′-Benzo[b]thiophen-3-yl-4-(3-chloro-phenyl)-3,4,5,6-tetrahydro-2H-[1,2′]bipyrazinyl] gave an IC50 of 10 to 100 µM.
`c1ccc(N2CCN(c3cncc(-c4ccsc4)n3)CC2)nc1` [compound 350, 4-Pyridin-2-yl-6′-thiophen-3-yl-3,4,5,6-tetrahydro-2H-[1,2′]bipyrazinyl] showed an IC50 of 1 to 10 µM.

Same assay, conditions: inhibition of UL 97 kinase activity; class by IC50 / % inhibition at 10 or 100 μM; read-out: Activity Class [A, B, C]
`Cc1ccc(N2CCN(c3cncc(-c4ccccc4)n3)CC2)cc1` [compound 135, 6′-Phenyl-4-p-tolyl-3,4,5,6-tetrahydro-2H-[1,2′]bipyrazinyl] showed an IC50 of 10 to 100 µM.
In the case of `Cc1cccc(-c2cncc(N3CCN(c4cccc(C(F)(F)F)c4)CC3)n2)c1` [compound 154, 6′-m-Tolyl-4-(3-trifluoromethyl-phenyl)-3,4,5,6-tetrahydro-2H-[1,2′]bipyrazinyl], the IC50 is reported as 10 to 100 µM.
In the case of `FC(F)(F)c1cc(-c2cncc(N3CCN(c4ccccc4)CC3)n2)cc(C(F)(F)F)c1` [compound 191, 6′-(3,5-Bis-trifluoromethyl-phenyl)-4-phenyl-3,4,5,6-tetrahydro-2H-[1,2′]bipyrazinyl], the IC50 is reported as 10 to 100 µM.
“6′-(4-Methylsulfanyl-phenyl)-4-pyridin-4-yl-3,4,5,6-tetrahydro-2H-[1,2′]bipyrazinyl [compound 66]” showed an IC50 of 1 to 10 µM.
In the case of `COc1ccccc1N1CCN(c2cncc(-c3ccoc3)n2)CC1` [compound 90, 6′-Furan-3-yl-4-(2-methoxy-phenyl)-3,4,5,6-tetrahydro-2H-[1,2′]bipyrazinyl], the IC50 is reported as 1 to 10 µM.
`CCNc1cncc(-c2ccc(C(N)=O)cc2)n1` [compound 40, 4-(6-Ethylamino-pyrazin-2-yl)-benzamide] gave an IC50 of 1 to 10 µM.
Molecule `CC(=O)c1ccc(-c2cncc(N3CCN(c4ccccc4F)CC3)n2)cc1` [compound 130, 1-{4-[4-(2-Fluoro-phenyl)-3,4,5,6-tetrahydro-2H-[1,2′]bipyrazinyl-6′-yl]-phenyl}-ethanone] has an IC50 of 1 to 10 µM.
`Fc1cc(-c2cncc(N3CCN(c4ccccc4)CC3)n2)ccc1-c1ccccc1` [compound 96, 6′-(2-Fluoro-biphenyl-4-yl)-4-phenyl-3,4,5,6-tetrahydro-2H-[1,2′]bipyrazinyl] showed an IC50 of 10 to 100 µM.
In the case of `CC(=O)c1ccc(N2CCN(c3cncc(-c4ccc(C)cc4)n3)CC2)cc1` [compound 148, 1-[4-(6′-p-Tolyl-2,3,5,6-tetrahydro-[1,2′]bipyrazinyl-4-yl)-phenyl]-ethanone], the IC50 is reported as 1 to 10 µM.
`N#Cc1ccccc1N1CCN(c2cncc(-c3ccc(Cl)cc3)n2)CC1` [compound 42, 2-[6′-(4-Chloro-phenyl)-2,3,5,6-tetrahydro-[1,2′]bipyrazinyl-4-yl]-benzonitrile] gave an IC50 of 1 to 10 µM.
Molecule `COc1ccccc1N1CCN(c2cncc(-c3ccc(SC)cc3)n2)CC1` [compound 108, 4-(2-Methoxy-phenyl)-6′-(4-methylsulfanyl-phenyl)-3,4,5,6-tetrahydro-2H-[1,2′]bipyrazinyl] has an IC50 of 1 to 10 µM.
`COc1cccc(-c2cncc(N3CCN(c4cccc(Cl)c4)CC3)n2)c1OC` [compound 183, 4-(3-Chloro-phenyl)-6′-(2,3-dimethoxy-phenyl)-3,4,5,6-tetrahydro-2H-[1,2′]bipyrazinyl] was tested, and the IC50 was 10 to 100 µM.
`CC(=O)c1cccc(-c2cncc(N3CCN(c4ccncc4)CC3)n2)c1` [compound 132, 1-[3-(4-Pyridin-4-yl-3,4,5,6-tetrahydro-2H-[1,2′]bipyrazinyl-6′-yl)-phenyl]-ethanone] was tested, and the IC50 was 1 to 10 µM.
In the case of `COc1cccc(-c2cncc(N3CCN(c4cccc(Cl)c4)CC3)n2)c1` [compound 98, 4-(3-Chloro-phenyl)-6′-(3-methoxy-phenyl)-3,4,5,6-tetrahydro-2H-[1,2′]bipyrazinyl], the IC50 is reported as 1 to 10 µM.
`CCOc1ccc(-c2cncc(N3CCN(c4cccc(Cl)c4)CC3)n2)cc1` [compound 129, 4-(3-Chloro-phenyl)-6′-(4-ethoxy-phenyl)-3,4,5,6-tetrahydro-2H-[1,2′]bipyrazinyl] gave an IC50 of 1 to 10 µM.
Work on `Fc1ccccc1N1CCN(c2cncc(-c3cc(C(F)(F)F)cc(C(F)(F)F)c3)n2)CC1` [compound 196, 6′-(3,5-Bis-trifluoromethyl-phenyl)-4-(2-fluoro-phenyl)-3,4,5,6-tetrahydro-2H-[1,2′]bipyrazinyl] yielded an IC50 of 10 to 100 µM.
`CN(C)c1ccc(-c2cncc(N3CCN(c4ccccc4)CC3)n2)cc1` [compound 190, Dimethyl-[4-(4-phenyl-3,4,5,6-tetrahydro-2H-[1,2′]bipyrazinyl-6′-yl)-phenyl]-amine] gave an IC50 of 1 to 10 µM.
`c1ccc2cc(-c3cncc(N4CCN(c5ccncc5)CC4)n3)ccc2c1` [Comp. 72, 6′-Naphthalen-2-yl-4-pyridin-4-yl-3,4,5,6-tetrahydro-2H-[1,2-′]bipyrazinyl] gave an IC50 of under 1 µM.
In the case of `Cc1ccc(-c2cncc(N3CCN(c4cccc(C(F)(F)F)c4)CC3)n2)cc1` [compound 155, 6′-p-Tolyl-4-(3-trifluoromethyl-phenyl)-3,4,5,6-tetrahydro-2H-[1,2′]bipyrazinyl], the IC50 is reported as 10 to 100 µM.
Work on `COc1ccc(OC)c(-c2cncc(N3CCN(c4ccc(F)cc4F)CC3)n2)c1` [compound 144, 4-(2,4-Difluoro-phenyl)-6′-(2,5-dimethoxy-phenyl)-3,4,5,6-tetrahydro-2H-[1,2′]bipyrazinyl] yielded an IC50 of 10 to 100 µM.
`CCOc1ccc(-c2cncc(N3CCN(c4ccc(OC)c(OC)c4)CC3)n2)cc1` [compound 45, 4-(3,4-Dimethoxy-phenyl)-6′-(4-ethoxy-phenyl)-3,4,5,6-tetrahydro-2H-[1,2′]bipyrazinyl] showed an IC50 of 1 to 10 µM.
With `Oc1ccc(-c2cncc(N3CCN(c4ccncc4)CC3)n2)cc1` [compound 57, 4-(4-Pyridin-4-yl-3,4,5,6-tetrahydro-2H-[1,2′]bipyrazinyl-6′-yl)-phenol] the IC50 was 10 to 100 µM.
In the case of `COc1ccc(Cl)cc1-c1cncc(N2CCN(c3ccccc3OC)CC2)n1` [compound 91, 6′-(5-Chloro-2-methoxy-phenyl)-4-(2-methoxy-phenyl)-3,4,5,6-tetrahydro-2H-[1,2′]bipyrazinyl], the IC50 is reported as 10 to 100 µM.
